# Results taken from US5877185A, “Synergistic compositions useful as anti-tumor agents” (priority 1995, dated 1999).
# Experiments:
# AA-2 leukemia cells = test: cytocidal effect in combination with ascorbate; conditions: for protection against apoptosis-inducing action: 160 μM ascorbate, 18 hr of drug exposure; for cell number Day 1 / cell number Day 2: alone or with ascorbate 160 μM; for cell number Day 1: 18 hr; for cell number Day 2: 42 hr
# Protocol: Because of the in vitro reactivity of the nitroso group of INOBA with both ascorbate and GSH, the apoptosis-inducing effect of NOBA with the action of the prodrug INO2 BA in the presence of ascorbate, added simultaneously with both drugs was compared.
# AA-2 cells were seeded at a density of 0.2×10^6 cells/ml. Drugs and/or sodium ascorbate were added at the time of seeding, and cells were counted by hemacytometer after incubation (37° C., 5% CO^2) for 18 hr (Day 1) and for 42 hr (Day 2). Viability was evaluated by Trypan Blue exclusion.
# Molt-4 cells = test: time course of cell killing alone and with BSO, Molt-4; assay type: cell-based; conditions: Molt-4, 2-3 day period; 4 μM drug, 1 mM BSO
# Protocol: (§1) Molt 4-cells were seeded at a density of 0.05×10^6 cell/ml in the recommended growth medium in the absence or the presence of drugs as indicated. Cells were incubated at 37° C. in a 5% CO2 atmosphere and proliferation was monitored in 14 hr. by cell counting in a hemacytometer. .smallcircle., untreated control; .circle-solid., treated with 4 μM 4-iodo-3-nitrobenzoic acid; .gradient., treated with 1 mM BSO; .tangle-soliddn., treated with 4 μM-iodo-3-nitrobenzoic acid and 1 mM BSO; .quadrature., treated with 4 μM 4-INO2 BA; .box-solid., treated with 1 mM BSO; .gradient., treated with 4 μM INO2 BA and 1 mM BSO. L-1210 cells were seeded at a density of 0.05×10^6 cells/ml either from untreated stock suspensions or from 24-hr. pretreated (0.2×10^6 cells/ml) suspensions. .smallcircle., untreated control; .circle-solid., treated with […] NOBA; .gradient., treated with 1 mM BSO; .tangle-soliddn., 24-hr pretreatment with 1 mM BSO then treated with 4 μM NOBA.
# (§2) A time course of the cell killings by 4-iodo-3-nitrobenzoic acid, INO2 BA and NOBA, each alone and in combination with BSO was obtained. Molt-4 cells were seeded at a density of 0.05×10^6 cells/ml in the recommended growth medium in the absence or presence of drugs as indicated in FIG. 3. Drugs were added to the wells immediately after seeding from 10-40 mM stock solution in DMSO. BSO was added from a 100 mM aqueous stock solution. Cells were incubated at 37° C. in a 5% CO2 atmosphere and proliferation was monitored in 14 hours by cell counting in a hemacytometer.
# L-1210 cells = test: time course of cell killing alone and with BSO, L-1210; assay type: cell-based, murine; conditions: L-1210, 2-3 day period; 1 mM BSO
# Protocol: as §1, §2
# SIVmac in CEM ×174 cells = test: SIVmac replication in CEM ×174 cells, reverse transcriptase assay; assay type: cell-based, SIV; conditions: for effect on SIVmac replication in pre-infected cells: cells pre-infected one day prior to treatment
# Protocol: CEM ×174 cells (3×10^5 /ml) were infected with 3.75 TCID50 /ml (50% tissue culture infectious dosage per ml of cell suspension) stock solution of SIVmac239 or virus isolates from SIVmac239-infected rhesus macaques on day 0. Uniform infection of cells was ensured by the infection of one cell population only per virus preparation. Three days post-infection, the cells were distributed (500 μl/well) into individual wells of a 24-well plate. Fresh medium containing INO2 BA concentrations ranging from 0 to 300 μM and/or BSO concentrations ranging from 0 to 0.25 mM were added to establish final 1-ml reaction volumes, and the cultures were further incubated for 4 days. The wells were then replenished with fresh CEM ×174 cells (3×10^5 /ml), INO2 BA and/or BSO were re-added at the same concentrations as in the original incubates, and incubation was continued for an additional 3 days. This procedure intends to mimic conditions of in vivo chemotherapy. Cell viability and virus titers in the supernatant were determined on day 10 (3 days after the addition of new cells) by the tetrazolium (MTT) method of Hansen et al., J. Immunol. Methods 119:208-210 (1982) and by the SIV p27 and reverse transcriptase (RT) assays described by Chuang et al., FEBS Lett. 326:140-144 (1993), respectively.
# To evaluate the activity of SIV reverse transcriptase, 10 μl of infected cell supernatant was added to a reaction mixture containing 50 mM Tris-HCl (pH 8.0), 5 mM MgCl2, 10 mM dithiothreitol, 20 mM KCl, and 1% Triton X-100 in a total volume of 50 μl. Poly(rA):oligo (dT)12-18 was present at 100 μg/ml and 2.4 μM [^3 H]TTP was used. The reaction mixtures were incubated at 37° C. for 1 hr and the TCA-precipitableradioactivity was filtered onto nitrocellulose filters which were then washed, dried and counted.
# The effect of INO2 BA on SIVmac replication in CEM ×174 cells that were pre-infected with virus for one day prior to treatment with INO2 BA are shown in FIG. 6. The cell culture and SIV reverse transcription assay were performed as described in Example XIV.
# neutrophil granulocytes = conditions: tumoricidal concentrations; cited from earlier work
# [1] = tested on: AZT-resistant rhesus macaque (MMU-23740)-derived SIV; conditions: cited from earlier work
# MT-2 cells = test: effectiveness on human T-lymphoblastoid leukemia cells, MT-2; assay type: cell-based
# Protocol: IV. Effectiveness of 4-(halogen)-3-nitro-benzamide compounds as tested with human T-lymphoblastoid leukemia cell lines in culture.
# Cells (MT-2 cells, or, in case of 3-fluoro-4-nitro-benzamide, CEM-4 cells) were seeded at a density of 0.1×10^5 /ml; the drugs were added at the time of seeding. The cultures were incubated at 37° C. in a 5% CO2 atmosphere and the cells numbers were monitored by hemacytometer counting in 24 hr intervals.
# Du 145 = test: cytotoxicity of INO2 BA with and without BSO, Du 145; assay type: cell-based; conditions: Homo sapiens
# Protocol: The concentration of BSO was 1 mM for all cell lines except HT 144, where the concentration was 0.25 mM. Cells were seeded in the recommended growth medium at a density of 1.5×10^4 cell/cm^2 into 2 cm^2 wells. Drugs were added simultaneously 4 hours after seeding, and incubation was continued for 48 hours at 37° C. in a 5% CO2 atmosphere. For assessment of drug effects cells were detached by trypsinization and counted in a hemacytometer.
# Cell lines Nos. 1-4 were obtained from Dr. C. Benz, University of California, San Francisco. MDA 468 and MCF-7 human mammary cancer lines, MCF-7-B-ADR drug-resistant mammary cancer line, Du 145 drug-resistant human prostate cancer line, HT 144 human melanoma cell line, Hep-G2 human hepatocellular carcinoma line, and PC-12 rat pheochromocytoma line were obtained from the University of California Cell Culture Facility.
# [2] = 42 h, read-out: dead cells Day 2
Structure (SMILES),protection against apoptosis-inducing action (AA-2 leukemia cells),cytotoxicity at 32 µM (AA-2 leukemia cells; [2]) [%],cell number Day 1 (AA-2 leukemia cells; NOBA 32 μM) [mL⁻¹],cell number Day 2 (AA-2 leukemia cells; NOBA 32 μM) [mL⁻¹],effect on cell proliferation (Molt-4 cells),effect on cell proliferation (L-1210 cells),effect on SIVmac replication in pre-infected cells (SIVmac in CEM ×174 cells),effect on superoxide formation by neutrophil granulocytes (neutrophil granulocytes),inhibition of infectious cycle [1],"IC50 (MT-2 cells; Homo sapiens, MT2, concentration decreasing cell viability to 50% of control, 48 h incubation, read-out: I50) [µM]",LD100 (MT-2 cells; zero viability after 48 hours of incubation),cytotoxicity at 16 µM (AA-2 leukemia cells; [2]) [%],cell number Day 1 (AA-2 leukemia cells; INO2 BA 16 μM) [mL⁻¹],cell number Day 2 (AA-2 leukemia cells; INO2 BA 16 μM) [mL⁻¹],"IC100 (Du 145; DU-145, 48 h, read-out: LD100) [µM]","IC50 (Du 145; DU-145, INO2 BA alone, 48 hours, read-out: I50) [µM]","reverse transcriptase activity (SIVmac in CEM ×174 cells; SIV-infected CEM ×174 cells, FIG. 6)"
"NC(=O)c1cccc(N=O)c1 [NOBA, 3-nitrosobenzamide]",completely protected,50,290000,370000,no significant effect,no significant effect,requires pre-incubation with cells prior to viral infection,relatively harmless,equally inhibited,–,–,–,–,–,–,–,–
"NC(=O)c1ccc(I)c([N+](=O)[O-])c1 [INO2 BA, 4-iodo-3-nitrobenzamide]",did not prevent apoptosis,–,–,–,no significant effect,no significant effect,effective even when incubated with cells that have been infected,–,–,70,190,40,250000,450000,250,120,greatly depressed
